Consider six molecules from ChEMBL document CHEMBL1139006, “Synthesis and in vitro antibiotic activity of 16-membered 9-O-arylalkyloxime macrolides” (2006).

≈ marks a conversion by molar mass, not a printed value.

Common to all, as to assay type: functional
Experiment [1] concerns Streptococcus pneumoniae. The experiment in a line: Antibacterial activity against Streptococcus pneumoniae ATCC 6301.
In experiment [2] the test system is Streptococcus pneumoniae. The experiment in a line: Antibacterial activity against Streptococcus pneumoniae ATCC 700671.
The subject of experiment [3] is Streptococcus pneumoniae. Nature of the experiment: Antibacterial activity against macrolide resistant Streptococcus pneumoniae ATCC 700676.
In experiment [4] the test system is Streptococcus pneumoniae. Nature of the experiment: Antibacterial activity against macrolide resistant Streptococcus pneumoniae ATCC 700677.
For experiment [5], the system named is Streptococcus pneumoniae. The experiment in a line: Antibacterial activity against macrolide resistant Streptococcus pneumoniae ATCC 700905.
Experiment [6] has as its system Streptococcus pneumoniae. Nature of the experiment: Antibacterial activity against macrolide resistant Streptococcus pneumoniae ATCC 700906.
For experiment [7], the system named is Streptococcus pneumoniae. Nature of the experiment: Antibacterial activity against Streptococcus pneumoniae ATCC 49619.
Experiment [8] concerns Haemophilus influenzae. The experiment in a line: Antibacterial activity against Haemophilus influenzae ATCC 9006.
The test system of experiment [9] is Haemophilus influenzae. The experiment in a line: Antibacterial activity against Haemophilus influenzae ATCC 49766.
The subject of experiment [10] is Haemophilus influenzae. The experiment in a line: Antibacterial activity against Haemophilus influenzae EH001.
The test system of experiment [11] is Haemophilus influenzae. The experiment in a line: Antibacterial activity against Haemophilus influenzae EH002.
In experiment [12] the test system is Haemophilus influenzae. The experiment in a line: Antibacterial activity against Haemophilus influenzae EH003.
Experiment [13] has as its system Staphylococcus aureus. The experiment in a line: Antibacterial activity against Staphylococcus aureus ATCC 6538p.
Experiment [14] relates to Staphylococcus aureus. Nature of the experiment: Antibacterial activity against macrolide resistant Staphylococcus aureus ATCC 33591.
Experiment [15] has as its system Staphylococcus aureus. Nature of the experiment: Antibacterial activity against macrolide resistant Staphylococcus aureus ATCC 141541.
Experiment [16] concerns Staphylococcus aureus. Nature of the experiment: Antibacterial activity against macrolide resistant Staphylococcus aureus ATCC BAA-39.
Experiment [17] has as its system Staphylococcus aureus. Nature of the experiment: Antibacterial activity against macrolide resistant Staphylococcus aureus ATCC BAA-44.
The subject of experiment [18] is Staphylococcus aureus. The experiment in a line: Antibacterial activity against Staphylococcus aureus ATCC 29213.
Experiment [19] relates to Staphylococcus epidermidis. Nature of the experiment: Antibacterial activity against Staphylococcus epidermidis ATCC 12228.
The test system of experiment [20] is Enterococcus faecalis. The experiment in a line: Antibacterial activity against Enterococcus faecalis ATCC 51575.

`CC[C@H]1OC(=O)C[C@@H](O)[C@H](C)[C@@H](O[C@@H]2O[C@H](C)[C@@H](O)[C@H](N(C)C)[C@H]2O)[C@@H](CCN2CC(C)CC(C)C2)C[C@@H](C)C(=N/OCCCc2ccc3ncccc3c2)/C=C/C(C)=C/C1CO` (some centres not stated): the MIC in [1] was 0.025 µg/mL (≈ 0.0284 µM); in experiment [2], 0.049 µg/mL (≈ 0.0557 µM); in experiment [3] it was 0.025 µg/mL (≈ 0.0284 µM); in experiment [4] it was greater than 12.5 µg/mL; in experiment [5] it was 0.025 µg/mL (≈ 0.0284 µM); in [6] it was greater than 12.5 µg/mL. The MIC is 0.025 µg/mL (≈ 0.0284 µM) in experiment [7]; 1.56 µg/mL (≈ 1.77 µM) in [8]; 3.12 µg/mL (≈ 3.55 µM) in experiment [9]; 3.12 µg/mL (≈ 3.55 µM) in experiment [10]; 3.12 µg/mL (≈ 3.55 µM) in experiment [11]; 1.56 µg/mL (≈ 1.77 µM) in experiment [12].
`CC[C@H]1OC(=O)C[C@@H](O)[C@H](C)[C@@H](O[C@@H]2O[C@H](C)[C@@H](O)[C@H](N(C)C)[C@H]2O)[C@@H](C=O)C[C@@H](C)C(=N\OCCCc2ccc3ncccc3c2)/C=C/C(C)=C/C1CO` (some centres not stated): the MIC is 0.025 µg/mL (≈ 0.0326 µM) in experiment [1]; 0.098 µg/mL (≈ 0.128 µM) in experiment [2]; 0.025 µg/mL (≈ 0.0326 µM) in experiment [3]; greater than 12.5 µg/mL in experiment [4]; 0.025 µg/mL (≈ 0.0326 µM) in [5]; greater than 12.5 µg/mL in [6]. The MIC in experiment [7] worked out at 0.025 µg/mL (≈ 0.0326 µM); in experiment [8] it was 1.56 µg/mL (≈ 2.03 µM); in experiment [9], 3.12 µg/mL (≈ 4.06 µM); in experiment [10], 3.12 µg/mL (≈ 4.06 µM); in experiment [11] it was 6.25 µg/mL (≈ 8.14 µM); in experiment [12] it was 3.12 µg/mL (≈ 4.06 µM).
For `CC[C@H]1OC(=O)C[C@@H](O)[C@H](C)[C@@H](O[C@@H]2O[C@H](C)[C@@H](O)[C@H](N(C)C)[C@H]2O)[C@@H](CC=O)C[C@@H](C)C(=N\OCCCOc2ccc3ncccc3c2)/C=C/C(C)=C/C1CO` (some centres not stated), the MIC in [1] was 0.025 µg/mL (≈ 0.0313 µM); in experiment [2], 0.025 µg/mL (≈ 0.0313 µM); in experiment [3] it was 0.025 µg/mL (≈ 0.0313 µM); in experiment [4] it was 0.2 µg/mL (≈ 0.251 µM); in [5], 0.025 µg/mL (≈ 0.0313 µM); in experiment [6], greater than 12.5 µg/mL. In addition, the MIC in experiment [7] was 0.01 µg/mL (≈ 0.0125 µM); in experiment [13], 0.025 µg/mL (≈ 0.0313 µM); in experiment [14] it was greater than 12.5 µg/mL; in experiment [15], 0.2 µg/mL (≈ 0.251 µM); in [16], greater than 12.5 µg/mL; in [17], greater than 12.5 µg/mL. Moreover, the MIC in experiment [18] was 0.098 µg/mL (≈ 0.123 µM); in experiment [19], 0.098 µg/mL (≈ 0.123 µM); in experiment [20], greater than 12.5 µg/mL; in experiment [8], 6.25 µg/mL (≈ 7.83 µM); in experiment [9] it was 6.25 µg/mL (≈ 7.83 µM).
In the case of `CC[C@H]1OC(=O)C[C@@H](O)[C@H](C)[C@@H](O[C@@H]2O[C@H](C)[C@@H](O)[C@H](N(C)C)[C@H]2O)[C@@H](CC=O)C[C@@H](C)C(=O)/C=C/C(C)=C/C1CO` (some centres not stated), the MIC was 0.025 µg/mL (≈ 0.0418 µM) in experiment [1]; 0.049 µg/mL (≈ 0.082 µM) in [2]; 0.78 µg/mL (≈ 1.3 µM) in experiment [3]; 6.25 µg/mL (≈ 10.5 µM) in experiment [4]; 0.78 µg/mL (≈ 1.3 µM) in experiment [5]; greater than 12.5 µg/mL in experiment [6]. In addition, the MIC was 0.098 µg/mL (≈ 0.164 µM) in experiment [7]; 0.39 µg/mL (≈ 0.652 µM) in experiment [13]; greater than 12.5 µg/mL in experiment [14]; 1.56 µg/mL (≈ 2.61 µM) in [15]; greater than 12.5 µg/mL in experiment [16]; greater than 12.5 µg/mL in experiment [17]. The MIC in experiment [18] was 0.78 µg/mL (≈ 1.3 µM); in experiment [19] it was 0.39 µg/mL (≈ 0.652 µM); in experiment [20] it was greater than 12.5 µg/mL; in experiment [8], 1.56 µg/mL (≈ 2.61 µM); in [9] it was 1.56 µg/mL (≈ 2.61 µM); in experiment [10], 3.12 µg/mL (≈ 5.22 µM). The MIC in experiment [11] was 6.25 µg/mL (≈ 10.5 µM); in experiment [12], 1.56 µg/mL (≈ 2.61 µM).
`CC[C@H]1OC(=O)[C@H](C)[C@@H](O[C@H]2C[C@@](C)(OC)[C@@H](O)[C@H](C)O2)[C@H](C)[C@@H](O[C@@H]2O[C@H](C)C[C@H](N(C)C)[C@H]2O)[C@](C)(O)C[C@@H](C)C(=O)[C@H](C)[C@@H](O)[C@]1(C)O` [ERYTHROMYCIN]: the MIC is 0.025 µg/mL (≈ 0.0341 µM) in [1]; 0.049 µg/mL (≈ 0.0668 µM) in experiment [2]; 6.25 µg/mL (≈ 8.52 µM) in experiment [3]; 6.25 µg/mL (≈ 8.52 µM) in experiment [4]; 3.12 µg/mL (≈ 4.25 µM) in experiment [5]; greater than 12.5 µg/mL in experiment [6]. The MIC is 0.049 µg/mL (≈ 0.0668 µM) in [7]; 0.098 µg/mL (≈ 0.134 µM) in experiment [13]; greater than 12.5 µg/mL in experiment [14]; greater than 12.5 µg/mL in experiment [16]; greater than 12.5 µg/mL in [17]; 0.2 µg/mL (≈ 0.273 µM) in experiment [18]. Also, the MIC in experiment [19] was 0.2 µg/mL (≈ 0.273 µM); in [20] it was greater than 12.5 µg/mL; in [8], 1.56 µg/mL (≈ 2.13 µM); in experiment [9], 6.25 µg/mL (≈ 8.52 µM); in [10], 3.12 µg/mL (≈ 4.25 µM); in experiment [11] it was 6.25 µg/mL (≈ 8.52 µM). The MIC in experiment [12] stood at 3.12 µg/mL (≈ 4.25 µM).
With `CC[C@H]1OC(=O)[C@H](C)C(=O)[C@H](C)[C@@H](O[C@@H]2O[C@H](C)C[C@H](N(C)C)[C@H]2O)[C@](C)(OC)C[C@@H](C)C(=O)[C@H](C)[C@H]2N(CCCCn3cnc(-c4cccnc4)c3)C(=O)O[C@]12C` [TELITHROMYCIN], the MIC in experiment [1] worked out at 0.025 µg/mL (≈ 0.0308 µM); in experiment [2] it was 0.025 µg/mL (≈ 0.0308 µM); in [3], 0.098 µg/mL (≈ 0.121 µM); in experiment [4], 0.025 µg/mL (≈ 0.0308 µM); in experiment [5], 0.025 µg/mL (≈ 0.0308 µM); in [6], 0.2 µg/mL (≈ 0.246 µM). Further, the MIC worked out at 0.049 µg/mL (≈ 0.0603 µM) in [7]; 1.56 µg/mL (≈ 1.92 µM) in [8]; 3.12 µg/mL (≈ 3.84 µM) in experiment [9]; 1.56 µg/mL (≈ 1.92 µM) in [10]; 6.25 µg/mL (≈ 7.7 µM) in experiment [11]; 1.56 µg/mL (≈ 1.92 µM) in [12].
